Data published in ChEMBL document CHEMBL3507680, “University of Dundee, Gates Library screen for HepG2 cell viability”.

Experiment: Human HepG2 cell viability assay in 384 well format
Format: toxicity, cell-based
Set-up: dose 125 nL, time 70.5 hour; cytotoxicity at 70.5 h: concentration not given beside the values
Settings: HepG2 cells, read-out: Inhibition

Compound	cytotoxicity at 70.5 h
O=C(NCCn1ccnc1)NCc1ccc(N2CCCCCC2)nc1	-14.2%
CCCN(C)C(=O)Nc1ccc(C(=O)NCCC(=O)OC)cc1	-6.01%
CN(CCC#N)C(=O)Cn1nnnc1C(C)(C)C	-16.8%
CCn1nc(C)c2nnn(CC(=O)Nc3c(C)cccc3C)c(=O)c21	27.9%
CCC1=NN2C(=N)/C(=C\c3cccn3-c3cccc(Cl)c3)C(=O)N=C2S1	-0.175%
Cc1noc(C)c1-c1cncc(CC2CCN(C(=O)c3cc[nH]n3)C2)n1 (stereo unspecified)	-4.86%
CC(C)c1nnc(NC(=O)CN2C(=O)c3ccccc3NC2C(C)C)s1 (stereo unspecified)	-13%
COCCCNC(=O)CN(C)C(C)c1nc(C(C)C)no1 (stereo unspecified)	-4.17%
Cc1noc(C)c1CNC(C(=O)N1CCOCC1)C(C)C (stereo unspecified)	-7.07%
CC1CCCCN1Cc1nc(C2CC2)no1 (stereo unspecified)	-4.41%
COCCN1C(=O)C[C@@H]2[C@H]1CCN2C(=O)c1ccc[nH]1	-5.24%
CC(C)c1cc(N[C@H](C(N)=O)C(C)C)n2nccc2n1	-4.75%
Cc1cccc(-c2nc(N)nc3c2CN(C(=O)c2cc(C)n[nH]2)C3C)c1 (stereo unspecified)	-13.9%
CCc1noc(CN2CCN(C(=O)c3ccccn3)CC2)n1	-7.01%
Cn1cc(S(=O)(=O)Nc2c(F)cccc2N2CCCC2)cn1	-4.97%
Cn1cccc1C(=O)NCc1cn2c(n1)CN(CC1CCOC1)CC2 (stereo unspecified)	17.2%
COc1ccc(Cc2nnc(NC(=O)C3CC34CCC4)s2)cc1OC (stereo unspecified)	0.282%
Cc1ccc(CN2C[C@@H](C(=O)Nc3cccnc3)C[C@H]3OCC[C@H]32)o1	21.9%
CC(C)c1nnc2n1CCN(C(=O)CN1Cc3ccccc3C1=O)C2	4.15%
COCC(=O)N1CCCC2(CCN(CCN3CCCC3)CC2)C1	-1.48%
Cc1noc(C2CCCN(C(=O)c3ccc(Br)o3)C2)n1 (stereo unspecified)	19.7%

Compound	cytotoxicity at 70.5 h
CC1NC(=O)COC12CCN(C(=O)Cc1ccsc1)CC2 (stereo unspecified)	4.29%
O=S(=O)(Nc1ccc(N2CCOCC2)cn1)c1ccc(F)cc1	9.02%
Cn1nccc1CN1CCCC(COc2ccccc2F)C1 (stereo unspecified)	-4.6%
CC(=O)c1cccc(S(=O)(=O)N2CSCC2C(=O)NCC(F)(F)F)c1 (stereo unspecified)	5.48%
Cc1nc(CN2CCCN(C(=O)c3cccnc3O)CC2)cs1	-4.77%
Cn1cc(CC2CCN(C(=O)NCCCc3ccc(O)cc3)C2)cn1 (stereo unspecified)	-9.85%
Cc1noc(C)c1CN1Cc2cn(C)nc2C(COCC2CC2)C1 (stereo unspecified)	14.4%
CCNC(=O)CN1CCCC(c2ccc(C(=O)O)cc2)C1 (stereo unspecified)	31.1%
O=C(NCCN1CCOCC1)Nc1cc(F)ccc1-n1cccn1	-0.85%
O=C(c1ccncc1)N1C[C@@H]2CC[C@H](C1)N(C(=O)C1CCCC1)C2	2.1%
CO[C@H]1CCN(Cc2cnn(C)c2)[C@@H]2CN(Cc3cccnc3)C[C@H]12	-25.8%
O=C1CC(N2CCN(c3ccc(O)cc3)CC2)C(=O)N1Cc1cccs1 (stereo unspecified)	-7.69%
Cc1cc(C(=O)N2CCN(c3nc4c(F)cccc4s3)CC2)no1	-7.99%
O=C(CSc1ccc2c(c1)OCCO2)NS(=O)(=O)c1ccccc1Br	-6.54%
CC1CCN(CCCNS(=O)(=O)c2cc(F)cc(F)c2)CC1	48.4%
CS(=O)(=O)N1CCC(Nc2ccc(C#N)c(C(F)(F)F)c2)CC1	8.33%
Cc1cc(NC(=O)NCc2cccnc2OC2CCCC2)n(C)n1	-2.74%
CSCCNC(=O)c1coc(COc2ccc3sc(C)nc3c2)n1	-13.9%
Cc1nc(CN2CCCCC2CCc2ccc(O)cc2)co1 (stereo unspecified)	-6.18%
Cc1cc2c(=O)n3c(nc2s1)CCN(Cc1cnn(C)c1C)CC3	-11.8%
CN(C)C(=O)N1CCN(C(=O)c2ccccc2)CC2(CNC(=O)C2)C1 (stereo unspecified)	-1.67%

Compound	cytotoxicity at 70.5 h
O=C(c1ccccc1)N1CCC2(CC1)CC(Oc1ccccc1)CO2 (stereo unspecified)	-11.5%
CCOc1nc2cnccc2n(CC(=O)NCc2ccc(C)cc2)c1=O	-9.89%
CC(C)C1CN(C(=O)c2ccc3nccnc3c2)CCS1 (stereo unspecified)	-7.38%
COc1cc(-c2nc3c([nH]2)CCCNC3=O)cc(OC)c1OC	-1.49%
CC(=O)N1CCc2nnc(C3CCCN3CC3CCCCC3)n2CC1 (stereo unspecified)	-6.06%
Cc1cn(Cc2ccc(F)cc2)nc1N	-1.4%
Fc1ccc(OCCNC2CCN(Cc3ccccn3)CC2)c(F)c1	20.2%
Cc1ccc(CN2CC(O)CN(C(=O)OCC(C)C)CC2=O)cc1 (stereo unspecified)	-4.78%
CNC(=O)[C@@H](CC(C)C)N1CCC[C@H]1C(=O)N(C)Cc1cccnc1	-6.49%
COc1ncccc1C(=O)N1CCc2c(ncnc2N2CCOCC2)C1	-3.85%
Cc1noc(C)c1-c1nc(C2CCCN(C(=O)C(C)C)C2)ccc1CO (stereo unspecified)	-2.96%
CCN1C[C@H]2CCN(Cc3ccncc3)C(=O)[C@@H]2C1	-12%
O=C(CN1CCN(CC(O)C2CC2)CC1)NCc1ccccc1Cl (stereo unspecified)	-10.5%
CCN1CCN(c2ccc(CNC(=O)c3c(C)noc3C)cn2)CC1	21.7%
O=C(Nc1ccccc1N1CCOC1=O)N1CCc2sccc2C1	-8.21%
CN(CC(=O)NC1(C)CCS(=O)(=O)C1)Cc1ccc(Br)cc1 (stereo unspecified)	7.79%
CN(C)S(=O)(=O)N1CC[C@]2(O)CCN(Cc3cc(F)cc(F)c3)C[C@@H]2C1	10.9%
Cc1ccc(Oc2cc(CN)ccn2)cc1C	-22.3%
O=C(c1ccoc1)N1CC[C@@H](N2CCOCC2)[C@@H]1Cc1ccccc1	-10.9%
Cc1ccc(NC2CCN(C(=O)c3cccc4[nH]ncc34)CC2)nn1	-4.9%
CC(C)c1nc(C2CCCN2CCc2ccccn2)no1 (stereo unspecified)	-15.3%

Compound	cytotoxicity at 70.5 h
Cc1ccccc1-n1cnc(Cl)c1CO	18.4%
CCNCc1ccc(OCc2ccc3c(c2)OCCO3)cc1	22.5%
COC[C@]12COC[C@H]1CN(C(=O)C1CCSCC1)C2	-6.73%
Cn1nc2c(cc1=O)CN(c1nc3ccccc3s1)CC2	4.78%
COCCn1cc2c(n1)C(CNCc1ccco1)OCC2 (stereo unspecified)	22.8%
CCC(NC(=O)NC1CCN(S(C)(=O)=O)CC1)c1cccs1 (stereo unspecified)	-11.5%
O=C(c1cscn1)N1C[C@@H](Oc2cccnc2)[C@H]2OCCC[C@H]21	26.4%
COc1ccc(CNC(=O)NCc2c(C)cc(C)[nH]c2=O)cc1	-11.9%
CC(C)NC(=O)N1Cc2nccn2CC(CN2CCCC2)C1 (stereo unspecified)	-6.64%
CC(C)c1nsc(N2CCSCC2)n1	-22.2%
Cc1nccn1-c1cc(CNC(=O)C(C)(C)C)ccn1	-4.88%
Cc1cc(Nc2ccccn2)nc(C2CCCN(CCO)C2)n1 (stereo unspecified)	-8.92%
COC(=O)c1cccc(C(=O)N2CCN(c3cc(C)ccc3C)CC2)n1	0.723%
COc1cccc(CN2CCC(c3nn(CCN)c4nccnc34)C2)c1 (stereo unspecified)	17%
COc1cccc(CN(C)C(=O)CCC(=O)c2ccccc2)c1OC	-9.57%
O=C(NCCc1cc(N2CCOCC2)nc(N2CCCC2)n1)C1CC1	-5.52%
Cc1n[nH]c(-c2ccc(NC(=O)C(C)N3CCN(C)CC3)cc2)n1 (stereo unspecified)	2.06%
CO[C@H]1CO[C@@]2(CCCN(C(=O)N(C)C)C2)C1	-3.18%
